Data as given in the NIST ThermoML archive (doi:10.1021/je500886a).

Experiment: mn = molality of the nth substance listed, in mol/kg
Conditions: 101 kPa, Liquid

O=C[C@H](O)[C@@H](O)[C@@H](O)[C@H](O)CO [(+)-galactose] + O
Conditions	mass density [kg/m3]	viscosity [mPa·s]
288.15 K, m1 = 0.05001	–	1.166
288.15 K, m1 = 0.05096	1002.7	–
288.15 K, m1 = 0.06903	1003.95	–
288.15 K, m1 = 0.07068	–	1.178
288.15 K, m1 = 0.09042	1005.42	–
288.15 K, m1 = 0.09059	–	1.189
288.15 K, m1 = 0.1099	–	1.199
288.15 K, m1 = 0.1289	–	1.208
288.15 K, m1 = 0.1513	–	1.22
288.15 K, m1 = 0.1552	1009.81	–
298.15 K, m1 = 0.05001	–	0.91
298.15 K, m1 = 0.05096	1000.58	–
298.15 K, m1 = 0.06903	1001.82	–
298.15 K, m1 = 0.07068	–	0.919
298.15 K, m1 = 0.09042	1003.27	–
298.15 K, m1 = 0.09059	–	0.927
298.15 K, m1 = 0.1099	–	0.935
298.15 K, m1 = 0.1102	1004.61	–
298.15 K, m1 = 0.1289	–	0.941
298.15 K, m1 = 0.1322	1006.08	–
298.15 K, m1 = 0.1513	–	0.951
308.15 K, m1 = 0.05001	–	0.734
308.15 K, m1 = 0.05096	997.56	–
308.15 K, m1 = 0.06903	998.79	–
308.15 K, m1 = 0.07068	–	0.741
308.15 K, m1 = 0.09042	1000.22	–
308.15 K, m1 = 0.09059	–	0.747
308.15 K, m1 = 0.1099	–	0.753
308.15 K, m1 = 0.1102	1001.54	–
308.15 K, m1 = 0.1289	–	0.758
308.15 K, m1 = 0.1322	1003	–
308.15 K, m1 = 0.1513	–	0.766
308.15 K, m1 = 0.1552	1004.51	–
318.15 K, m1 = 0.05001	–	0.607
318.15 K, m1 = 0.05096	993.7	–
318.15 K, m1 = 0.06903	994.91	–
318.15 K, m1 = 0.07068	–	0.612
318.15 K, m1 = 0.09042	996.33	–
318.15 K, m1 = 0.09059	–	0.617
318.15 K, m1 = 0.1099	–	0.621
318.15 K, m1 = 0.1102	997.64	–
318.15 K, m1 = 0.1289	–	0.625
318.15 K, m1 = 0.1322	999.07	–
318.15 K, m1 = 0.1513	–	0.63
318.15 K, m1 = 0.1552	1000.57	–

O=C[C@@H](O)[C@H](O)[C@H](O)CO [D-(-)-arabinose] + O
Conditions	mass density, 288.15 K [kg/m3]	mass density, 298.15 K [kg/m3]	mass density, 308.15 K [kg/m3]	mass density, 318.15 K [kg/m3]	viscosity, 288.15 K [mPa·s]	viscosity, 298.15 K [mPa·s]	viscosity, 308.15 K [mPa·s]	viscosity, 318.15 K [mPa·s]
m1 = 0.05173	1002.09	999.97	996.94	993.08	–	–	–	–
m1 = 0.05178	–	–	–	–	1.157	0.905	0.73	0.604
m1 = 0.0695	–	–	–	–	1.164	0.909	0.734	0.608
m1 = 0.07102	1003.18	1001.05	998	994.13	–	–	–	–
m1 = 0.08979	–	–	–	–	1.17	0.915	0.738	0.611
m1 = 0.09055	1004.28	1002.13	999.06	995.18	–	–	–	–
m1 = 0.1077	–	–	–	–	1.177	0.92	0.741	0.614
m1 = 0.1093	1005.32	1003.17	1000.07	996.18	–	–	–	–
m1 = 0.1244	1006.17	1004	1000.88	996.98	–	–	–	–
m1 = 0.1267	–	–	–	–	1.182	0.925	0.745	0.616
m1 = 0.1476	1007.45	1005.26	1002.12	998.21	–	–	–	–
m1 = 0.151	–	–	–	–	1.191	0.932	0.75	0.621

OC[C@@H](O)[C@@H](O)[C@H](O)[C@@H](O)CO [D-sorbitol] + O
Conditions	mass density, 288.15 K [kg/m3]	mass density, 298.15 K [kg/m3]	mass density, 308.15 K [kg/m3]	mass density, 318.15 K [kg/m3]	viscosity, 288.15 K [mPa·s]	viscosity, 298.15 K [mPa·s]	viscosity, 308.15 K [mPa·s]	viscosity, 318.15 K [mPa·s]
m1 = 0.0479	–	–	–	–	1.169	0.914	0.736	0.609
m1 = 0.05068	1002.38	1000.23	997.2	993.33	–	–	–	–
m1 = 0.06467	–	–	–	–	1.183	0.921	0.742	0.614
m1 = 0.07063	1003.63	1001.46	998.41	994.53	–	–	–	–
m1 = 0.08656	–	–	–	–	1.197	0.932	0.75	0.62
m1 = 0.09024	1004.83	1002.65	999.59	995.7	–	–	–	–
m1 = 0.1057	1005.77	1003.58	1000.51	996.61	–	–	–	–
m1 = 0.106	–	–	–	–	1.21	0.942	0.756	0.624
m1 = 0.1249	–	–	–	–	1.226	0.951	0.765	0.631
m1 = 0.13	1007.24	1005.03	1001.95	998.04	–	–	–	–
m1 = 0.1451	–	–	–	–	1.239	0.959	0.772	0.635
m1 = 0.1465	1008.23	1006.01	1002.93	999	–	–	–	–
